Laboratory results: US6403561B1, “Tripeptidylpeptidase inhibitors” (Institut National de la Sante et de la Recherche Medicale …, priority 1998, dated 2002)
Where a name gives a salt, the structure may show the parent alone. Where a SMILES comes first, the peptide text is derived from it. [ ]: non-standard residue; d: D form. The star is where a group is joined. ξ: configuration not given here. Pro(cis-4-F) = O=C(O)[C@@H]1C[C@H](F)CN1; Tic = O=C(O)[C@@H]1Cc2ccccc2CN1; Abu = CC[C@H](N)C(=O)O; ξAbu = CCC(N)C(=O)O; NHBu = CCCCN*; NHPr = CCCN*

Tested on: not given
Assay: not given
Settings: not given

Row | Molecule | melting point
1 | CC[C@H](N)C(=O)N1CCC[C@H]1C(=O)NCCCSC (as salt: oxalate) [Example 2, 1-(2(S)-amino-butyryl)-L-proline 3-(methylthio)propylamide] | 120 to 121 °C
2 | CCCNC(=O)[C@@H]1Cc2ccccc2N1C(=O)[C@@H](N)CC (as salt: oxalate) (hydrate or solvate) | 130 to 131 °C
3 | CCCCNC(=O)C1Cc2cc(F)ccc2N1C(=O)[C@@H](N)CC (mixture of isomers) (as salt: oxalate) [Example 20, 1-(2(S)-aminobutyryl)-2(R/S)-(5-fluoro)indolinecarboxylic Acid N-butylamide] | 105 to 110 °C
4 | CCCCNC(=O)C1c2ccccc2CN1C(=O)[C@@H](N)CC (mixture of isomers) (as salt: oxalate) [Example 23, 2-(2(S)-aminobutyryl)-1-(R/S)-isoindolinecarboxylic Acid N-butylamide] | 90 to 92 °C
5 | CC[C@H](N)C(=O)N1CCC[C@H]1C(=O)NCC(C)C (as salt: trifluoroacetate) [Example 7, 1-(2(S)-amino-butyryl)-L-proline isobutylamide] | 58 to 61 °C
6 | CC[C@H](C)CNC(=O)[C@@H]1CCCN1C(=O)[C@@H](N)CC (as salt: oxalate) [Example 5, 1-(2(S)-aminobutyryl)-L-proline [2(S)methyl]butylamide] | 135 to 136 °C
7 | CCNC(=O)[C@@H]1Cc2ccccc2N1C(=O)[C@@H](N)CC [Example 17, 1-(2(S)-aminobutyryl)-2(s)-indolinecarboxylic Acid ethylamide] | 115 to 120 °C
8 | CCCCNC(=O)C1Cc2cc(OC)ccc2N1C(=O)[C@@H](N)C(C)C.O=C(O)C(=O)O (mixture of isomers) [Example 24, 1-(L-valyl)-5-methoxyindoline-2(R/S)-carboxylic Acid Butylamide Oxalate] | 112 to 120 °C
9 | CCCCNC(=O)C1Cc2cc(OC)ccc2N1C(=O)[C@@H](N)CC (mixture of isomers) (as salt: oxalate) [Example 18, 1-(2(S)-amino-butyryl)-2(R/S)-(5-methoxy)indolinecarboxylic Acid n-butylamide] | 95 to 105 °C
10 | CCCCNC(=O)C1Cc2c(OC)cccc2N1C(=O)[C@@H](N)CC.O=C(O)C(=O)O (mixture of isomers) [Example 27, 1-(2(S)-aminobutyryl)-4-methoxyindoline-2(R/S)-carboxylic Acid Butylamide Oxalate] | 117 to 119 °C
11 | CCCCNC(=O)C1Cc2cc(C)ccc2N1C(=O)[C@@H](N)CC.O=C(O)C(=O)O (mixture of isomers) [Example 35, 1-2(S)-aminobutyryl-5-methylindoline-2(R/S)-carboxylic Acid Butylamide Oxalate] | 110 to 112 °C
12 | CCCCNC(=O)[C@@H]1Cc2ccccc2CN1C(=O)[C@@H](N)CC (as salt: oxalate) [Example 13, 2-(2(S)-amino-butyryl)-1,2,3,4-tetrahydro-3(S)-isoquinolinecarboxylic Acid n-butylamide] (H-[Abu]-[Tic]-NHBu) | 105 to 110 °C
13 | CCCCNC(=O)[C@@H]1Cc2cc(Cl)ccc2N1C(=O)[C@@H](N)CC.O=C(O)C(F)(F)F [Example 36, 1-(2(S)-aminobutyryl)-5-chloroindoline-2(S)-carboxylic Acid Butylamide Trifluoroacetate] | 83 to 84 °C
14 | CCCCNC(=O)C1Cc2c(ccc(OC)c2OC)N1C(=O)[C@@H](N)CC.O=C(O)C(=O)O (mixture of isomers) [Example 32, 1-(2(S)-aminobutyryl)-4,5-dimethoxyindoline-2(R/S)-carboxylic Acid Butylamide Oxalate] | 196.1 to 197.5 °C
15 | CCCCNC(=O)C1Cc2cc(OC)ccc2N1C(=O)[C@H](C)N.O=C(O)C(=O)O (mixture of isomers) [Example 25, 1-(L-alanyl)-5-methoxyindoline-2(R/S)-carboxylic Acid Butylamide Oxalate] | 112 to 118 °C

Target: membrane-bound tripeptidylpeptidase II (Rattus norvegicus, UniProt Q64560)
Assay: Measurement of the activity of membrane-bound tripeptidylpeptidase (release of Amc from A-AP-Amc, fluorimetry)
Settings: Ki, apparent dissociation constant calculated from the 50% inhibitory concentration and the KM of the substrate (23 μM); rat brain membranes, 50 μM A-AP-Amc
Method: Membranes from rat brain were obtained by centrifugation (200,000×g min) of a homogenate prepared in 10 volumes of 50 mM potassium phosphate buffer, pH 7.4.
After washing thoroughly, the centrifugation pellet is taken up in the buffer containing 10% glycerol and 0.1% Brij 35 in order to obtain a concentration of 25 mg of proteins/ml.
The release of Amc is evaluated by fluorimetry.

Sequence of membrane-bound tripeptidylpeptidase II (Q64560 whole entry): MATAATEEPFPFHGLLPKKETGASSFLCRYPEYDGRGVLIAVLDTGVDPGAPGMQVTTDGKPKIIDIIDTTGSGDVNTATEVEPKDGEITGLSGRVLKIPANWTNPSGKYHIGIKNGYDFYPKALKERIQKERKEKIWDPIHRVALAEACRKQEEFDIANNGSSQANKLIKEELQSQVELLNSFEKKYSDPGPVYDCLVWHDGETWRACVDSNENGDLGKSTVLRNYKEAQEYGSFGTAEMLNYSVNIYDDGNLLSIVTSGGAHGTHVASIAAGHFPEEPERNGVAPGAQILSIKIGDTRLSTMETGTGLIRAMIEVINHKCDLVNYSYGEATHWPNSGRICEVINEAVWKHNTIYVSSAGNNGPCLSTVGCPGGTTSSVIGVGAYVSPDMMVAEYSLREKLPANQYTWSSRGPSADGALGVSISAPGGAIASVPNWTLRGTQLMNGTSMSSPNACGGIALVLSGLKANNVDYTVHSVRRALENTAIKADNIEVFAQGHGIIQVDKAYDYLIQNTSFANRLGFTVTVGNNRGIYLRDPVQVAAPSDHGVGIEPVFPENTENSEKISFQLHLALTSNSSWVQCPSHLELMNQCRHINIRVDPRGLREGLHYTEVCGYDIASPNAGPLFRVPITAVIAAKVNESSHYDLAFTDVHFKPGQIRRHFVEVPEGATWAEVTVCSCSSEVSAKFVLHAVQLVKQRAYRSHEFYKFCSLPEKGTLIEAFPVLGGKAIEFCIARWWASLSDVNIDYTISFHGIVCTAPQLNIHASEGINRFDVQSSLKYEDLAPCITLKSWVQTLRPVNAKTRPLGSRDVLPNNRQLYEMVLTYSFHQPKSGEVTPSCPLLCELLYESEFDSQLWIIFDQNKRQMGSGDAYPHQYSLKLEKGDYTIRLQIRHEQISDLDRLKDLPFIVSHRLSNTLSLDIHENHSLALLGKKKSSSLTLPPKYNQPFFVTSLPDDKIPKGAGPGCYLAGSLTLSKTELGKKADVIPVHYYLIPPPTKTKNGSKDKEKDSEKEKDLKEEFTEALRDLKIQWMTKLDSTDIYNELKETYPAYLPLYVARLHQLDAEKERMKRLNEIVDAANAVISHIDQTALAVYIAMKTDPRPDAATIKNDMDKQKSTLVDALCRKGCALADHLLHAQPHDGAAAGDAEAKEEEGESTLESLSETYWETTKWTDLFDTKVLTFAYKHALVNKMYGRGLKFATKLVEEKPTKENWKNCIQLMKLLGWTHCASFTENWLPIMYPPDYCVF

Row | Molecule | Ki
16 | CCCCNC(=O)C1Cc2ccc(OC)cc2N1C(=O)[C@@H](N)CC (mixture of isomers) [Example 19, 1-(2(S)-aminobutyryl)-2(R/S)-(6-methoxy)indolinecarboxylic acid n-butylamide] | 77 nM
17 | CCCCNC(=O)C1Cc2c(OC)cccc2N1C(=O)[C@@H](N)CC (mixture of isomers) [Example 27, 1-(2(S)-aminobutyryl)-4-methoxyindoline-2(R/S)-carboxylic Acid Butylamide Oxalate] | 14 nM
18 | CCCNC(=O)[C@@H]1CCCN1C(=O)[C@@H](N)CC [Example 6, 1-(2(S)-amino-butyryl)-L-proline n-propylamide] (H-[Abu]-Pro-NHPr) | 80 nM
19 | CCCCNC(=O)[C@@H]1Cc2ccccc2CN1C(=O)[C@@H](N)CC [Example 13, 2-(2(S)-amino-butyryl)-1,2,3,4-tetrahydro-3(S)-isoquinolinecarboxylic Acid n-butylamide] (H-[Abu]-[Tic]-NHBu) | 40 nM
20 | CCCCNC(=O)C1C(C)c2ccccc2N1C(=O)C(N)CC (single isomer, unassigned) [Example 29] | 593 nM
21 | CC[C@H](N)C(=O)N1CCC[C@H]1C(=O)NCCCSC [Example 2, 1-(2(S)-amino-butyryl)-L-proline 3-(methylthio)propylamide] | 300 nM
22 | CCCCNC(=O)C1Cc2cc(F)ccc2N1C(=O)[C@@H](N)CC (mixture of isomers) [Example 20, 1-(2(S)-aminobutyryl)-2(R/S)-(5-fluoro)indolinecarboxylic Acid N-butylamide] | 12 nM
23 | CCCCCNC(=O)[C@@H]1CCCN1C(=O)[C@@H](N)CC [Example 3, 1-(2(S)-aminobutyryl)-L-proline n-pentylamide] | 270 nM
24 | CCCCCCNC(=O)[C@@H]1CCCN1C(=O)[C@@H](N)C(C)C [Example 1, L-valyl-L-proline n-hexylamide] | 900 nM
25 | CCCCNC(=O)[C@@H]1Cc2cc(OC)ccc2N1C(=O)[C@@H](N)CC [18 (S,S) isomer] | 6 nM
26 | CCC(N)C(=O)N1CCC[C@H]1C(N)=O (stereo partly drawn) [2 (S)-aminobutyryl-L-prolineamide, reference compound] (H-[ξAbu]-Pro-NH2) | 570 nM
27 | CCCCNC(=O)[C@H]1Cc2cc(OC)ccc2N1C(=O)[C@@H](N)CC [18 (S,R) isomer] | 241 nM
28 | CCCCNC(=O)[C@@H]1CCCN1C(=O)[C@@H](N)CC [Example 4, 1-(2(S)-amino-butyryl)-L-proline n-butylamide] (H-[Abu]-Pro-NHBu) | 100 nM
29 | CCCCNC(=O)C1Cc2cc(OCc3ccccc3)ccc2N1C(=O)[C@@H](N)CC (mixture of isomers) [Example 21] | 1000 nM
30 | CCCCNC(=O)C1Cc2c(ccc(OC)c2OC)N1C(=O)[C@@H](N)CC (mixture of isomers) [Example 32, 1-(2(S)-aminobutyryl)-4,5-dimethoxyindoline-2(R/S)-carboxylic Acid Butylamide Oxalate] | 9.6 nM
31 | CCCCNC(=O)C1Cc2cc(OC)ccc2N1C(=O)[C@@H](N)C(C)C (mixture of isomers) [Example 24, 1-(L-valyl)-5-methoxyindoline-2(R/S)-carboxylic Acid Butylamide Oxalate] | 146 nM
32 | CCCCNC(=O)C1N(C(=O)[C@@H](N)CC)c2ccccc2C1(C)C (mixture of isomers) [Example 28, 1-(2(S)-aminobutyryl)-3,3-dimethylindoline-2(R/S)-carboxylic Acid Butylamide Oxalate] | 864 nM
33 | CC[C@H](C)CNC(=O)[C@@H]1CCCN1C(=O)[C@@H](N)CC [Example 5, 1-(2(S)-aminobutyryl)-L-proline [2(S)methyl]butylamide] | 500 nM
34 | CCCCNC(=O)[C@@H]1C[C@H](F)CN1C(=O)[C@@H](N)CC [Example 11, 1-(2(S)-amino-butyryl)-(4(S)-fluoro)-L-proline n-butylamide] (H-[Abu]-[Pro(cis-4-F)]-NHBu) | 320 nM
35 | CCCCNC(=O)C1Cc2cc(OC)ccc2N1C(=O)[C@@H](N)CC (mixture of isomers) [Example 18, 1-(2(S)-amino-butyryl)-2(R/S)-(5-methoxy)indolinecarboxylic Acid n-butylamide] | 8 nM
36 | CCCCNC(=O)[C@@H]1CCCN1C(=O)[C@@H](N)C(C)C [Example 8, L-valyl-L-proline n-butylamide] (H-Val-Pro-NHBu) | 570 nM
37 | CCCCNC(=O)C1Cc2cc(OC)ccc2N1C(=O)[C@H](C)N (mixture of isomers) [Example 25, 1-(L-alanyl)-5-methoxyindoline-2(R/S)-carboxylic Acid Butylamide Oxalate] | 26 nM
38 | CC[C@H](N)C(=O)N1CCC[C@H]1C(=O)NCC(C)C [Example 7, 1-(2(S)-amino-butyryl)-L-proline isobutylamide] | 320 nM
39 | CCCCNC(=O)C1c2ccccc2CN1C(=O)[C@@H](N)CC (mixture of isomers) [Example 23, 2-(2(S)-aminobutyryl)-1-(R/S)-isoindolinecarboxylic Acid N-butylamide] | 143 nM
40 | CCCCNC(=O)C1Cc2cc(O)ccc2N1C(=O)[C@@H](N)CC (mixture of isomers) [Example 34, 1-2(S)-aminobutyryl-5-hydroxyindoline-2(R/S)-carboxylic Acid Butylamide Oxalate] | 10.4 nM
41 | CCCCNC(=O)C1C(C)c2ccccc2N1C(=O)C(N)CC (single isomer, unassigned) [Example 30] | 32 nM
42 | CCCCNC(=O)C1Cc2cc(C)ccc2N1C(=O)[C@@H](N)CC (mixture of isomers) [Example 35, 1-2(S)-aminobutyryl-5-methylindoline-2(R/S)-carboxylic Acid Butylamide Oxalate] | 22.6 nM

Same assay, conditions: apparent dissociation constant calculated from the 50% inhibitory concentration and the KM of the substrate (23 μM); rat brain membranes, 50 μM A-AP-Amc

Row | Molecule | Ki
43 | CCCCNC(=O)[C@@H]1C[C@H](Cc2ccccc2)CN1C(=O)[C@@H](N)CC [Example 12, 1-(2(S)-aminobutyryl)-(4(S)-benzyl)-L-proline n-butylamide] | 140 nM
44 | L-alanyl-L-prolyldifluoro-L-borovaline borohydride [Example 10] | 0.3 nM
